PubChem BioAssay (NCI)
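Growth conditions: 96-well plates. Treatment: test compound, 48 hours, 5 concentrations. Analysis: linear interpolation between bracketing concentrations; unreached endpoints set to highest concentration. TGI: concentration producing complete growth inhibition.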

Key:
Experiment in all cases: inhibition of tumour cell growth, NCI panel, 48 h
UACC-62 melanoma = system: UACC-62 melanoma
U251 CNS = system: U251 CNS
LOX IMVI melanoma = system: LOX IMVI melanoma
RXF 393 renal = system: RXF 393 renal
DMS 114 small cell lung = system: DMS 114 small cell lung
HOP-18 NSCLC = system: HOP-18 NSCLC
OVCAR-3 ovarian = system: OVCAR-3 ovarian
SK-MEL-28 melanoma = system: SK-MEL-28 melanoma
KM20L2 colon = system: KM20L2 colon
K-562 leukemia = system: K-562 leukemia
EKVX NSCLC = system: EKVX NSCLC
NCI-H226 lung = system: NCI-H226 lung
SF-295 CNS = system: SF-295 CNS
CCRF-CEM leukemia = system: CCRF-CEM leukemia
OVCAR-5 ovarian = system: OVCAR-5 ovarian
SNB-75 CNS = system: SNB-75 CNS
OVCAR-4 ovarian = system: OVCAR-4 ovarian
NCI-H460 lung = system: NCI-H460 lung
SN12C renal = system: SN12C renal
SNB-78 CNS = system: SNB-78 CNS
RXF-631 renal = system: RXF-631 renal
RPMI-8226 leukemia = system: RPMI-8226 leukemia
SF-539 CNS = system: SF-539 CNS
SW-620 colon = system: SW-620 colon
SK-OV-3 ovarian = system: SK-OV-3 ovarian
HOP-62 NSCLC = system: HOP-62 NSCLC
UACC-257 melanoma = system: UACC-257 melanoma
HCT-15 colon = system: HCT-15 colon
HCT-116 colon = system: HCT-116 colon
SNB-19 CNS = system: SNB-19 CNS
HCC-2998 colon = system: HCC-2998 colon
COLO 205 colon = system: COLO 205 colon
HL-60(TB) leukemia = system: HL-60(TB) leukemia
DLD-1 colon = system: DLD-1 colon
SK-MEL-2 melanoma = system: SK-MEL-2 melanoma
MALME-3M melanoma = system: MALME-3M melanoma
DMS 273 small cell lung = system: DMS 273 small cell lung
HOP-92 NSCLC = system: HOP-92 NSCLC
LXFL 529 NSCLC = system: LXFL 529 NSCLC
M14 melanoma = system: M14 melanoma
TK-10 renal = system: TK-10 renal
786-0 renal = system: 786-0 renal
UO-31 renal = system: UO-31 renal
MOLT-4 leukemia = system: MOLT-4 leukemia
A498 renal = system: A498 renal
A549 NSCLC = system: A549 NSCLC
OVCAR-8 ovarian = system: OVCAR-8 ovarian
IGROV1 ovarian = system: IGROV1 ovarian
HT29 colon = system: HT29 colon
KM12 colon = system: KM12 colon
CAKI-1 renal = system: CAKI-1 renal
NCI-H23 lung = system: NCI-H23 lung
SK-MEL-5 melanoma = system: SK-MEL-5 melanoma
NCI-H522 lung = system: NCI-H522 lung
SF-268 CNS = system: SF-268 CNS
SR leukemia = system: SR leukemia
ACHN renal = system: ACHN renal
M19-MEL melanoma = system: M19-MEL melanoma

Measured: TGI

COc1cccc(CC(C)N)c1 (centres undefined)
not listed: M19-MEL melanoma
> 100 µM: all other assays above

O=C1C(c2ccccc2)=[N+]([O-])c2cc([N+](=O)[O-])c(/C(Cl)=C/c3ccccc3)cc21
82.9 µM: 786-0 renal
37.2 µM: DMS 273 small cell lung
45 µM: DLD-1 colon
96.9 µM: SNB-78 CNS
59.1 µM: OVCAR-5 ovarian
51.6 µM: RXF 393 renal
39.7 µM: U251 CNS
42.5 µM: RPMI-8226 leukemia
21.4 µM: RXF-631 renal
49.2 µM: MOLT-4 leukemia
54.8 µM: SF-539 CNS
82.3 µM: TK-10 renal
59.8 µM: KM12 colon
44.4 µM: SK-MEL-5 melanoma
83.4 µM: UACC-62 melanoma
27 µM: OVCAR-3 ovarian
60.1 µM: NCI-H23 lung
78.9 µM: EKVX NSCLC
53 µM: SR leukemia
58.2 µM: HT29 colon
26.6 µM: LOX IMVI melanoma
28.9 µM: M19-MEL melanoma
22.9 µM: DMS 114 small cell lung
34.2 µM: OVCAR-8 ovarian
30.7 µM: OVCAR-4 ovarian
75.5 µM: HOP-18 NSCLC
57.5 µM: IGROV1 ovarian
37.7 µM: K-562 leukemia
> 100 µM: NCI-H226 lung | SF-295 CNS | SK-OV-3 ovarian | SNB-19 CNS | UO-31 renal | A549 NSCLC | SF-268 CNS
18.4 µM: HL-60(TB) leukemia
61 µM: SK-MEL-28 melanoma
40.3 µM: CCRF-CEM leukemia
31 µM: COLO 205 colon
62.8 µM: SNB-75 CNS
94.4 µM: ACHN renal
40.9 µM: M14 melanoma
31.1 µM: SW-620 colon

C/C(CC(=O)Nc1ccc(C)c(C)c1)=N\NC(N)=S
not listed: HOP-18 NSCLC | OVCAR-4 ovarian | SN12C renal | HCT-15 colon | SNB-19 CNS | A498 renal | CAKI-1 renal | SR leukemia | M19-MEL melanoma
> 100 µM: all other assays above
